From US20180153203A1, “(5R)-(ß-D-GLUCOPYRANOSYLOXY)-1,5-DIHYDRO-2H-PYRROL-2-ONE AS UMAMI MOLECULE” (priority 2015, published 2018)
Read-outs that look alike come from different tables or passages of the source.

Key:
[1] = tested on: sensory panel of 5 to 8 trained persons; assay: Sensory panel tasting of umami intensity in water; type: in vivo, human; conditions: for threshold (umami) / threshold (umami), preferably: in water; for Intense umami / No umami / Umami: water, count of tasters on 3-point umami scale
Description: (§1) The sensory tests were performed in a sensory panel room at 20-25° C. The sensory panel consisted of 5 to 8 trained persons. The technical tasting was measured versus a control sample. Tasters were asked to judge the different products according to umami intensity on a 3-point scale (no umami, umami and intense umami). Additionally the tasters were asked to objectively describe the prototype with comments.
The stereoisomers have been tested to umami intensity as described in example 7.

[2] = tested on: sensory panel of 5 to 8 trained persons; assay: Sensory panel tasting in 0.2% sodium chloride and 0.04% sugar; type: in vivo, human; conditions: for Intense umami / No umami / Umami: 0.2% sodium chloride and 0.04% sugar, count of tasters
Description: as §1

[3] = tested on: sensory panel of 5 to 8 trained persons; assay: Sensory panel tasting in 0.2% sodium chloride and 0.04% sugar and 0.08% MSG; type: in vivo, human; conditions: 0.2% sodium chloride, count of tasters
Description: as §1

[4] = tested on: sensory panel of 5 to 8 trained persons; assay: Sensory panel tasting in 0.2% sodium chloride and 0.04% sugar and 0.015% IMP + GMP; type: in vivo, human; conditions: 0.2% sodium chloride, count of tasters
Description: as §1

sensory panel = assay: Sensory panel tasting of tomato soups; type: in vivo, human; conditions: tomato soup
Description: (5R)-(β-D-glucopyranosyloxy)-1,5-dihydro-2H-pyrrol-2-one was added at 500 mg/L (500 ppm) to the soups.

[5] = tested on: sensory panel of 5 to 8 trained persons; conditions: comparison value for MSG, no source or test given; cited from earlier work

(5R)-(β-D-glucopyranosyloxy)-1,5-dihydro-2H-pyrrol-2-one
threshold (umami) ([1]; corresponding to 250 mg/l): 957 µmol/L | threshold (umami), preferably ([1]; corresponding to 500 mg/l): 1914 µmol/L | threshold (umami) ([1]; from Table 1): 250 mg/L | threshold (umami), preferably ([1]; from Table 1, 'preferably'): 500 mg/L | Intense umami ([1]; C 100 mg/l): 0 | No umami ([1]; C 100 mg/l): 5 | Umami ([1]; C 100 mg/l): 3 | Intense umami ([1]; C 250 mg/l): 1 | No umami ([1]; C 250 mg/l): 3 | Umami ([1]; C 250 mg/l): 4 | Intense umami ([1]; C 500 mg/l): 1 | No umami ([1]; C 500 mg/l): 1 | Umami ([1]; C 500 mg/l): 6 | Intense umami ([2]; C 200 mg/l): 0 | No umami ([2]; C 200 mg/l): 3 | Umami ([2]; C 200 mg/l): 4 | Intense umami ([2]; C 500 mg/l): 2 | No umami ([2]; C 500 mg/l): 2 | Umami ([2]; C 500 mg/l): 3 | umami enhancing property ([2]; conclusion from Table 2, table 3 and table 4 (salt/sugar base, with MSG, with IMP + GMP)): shows the umami enhancing property | Intense umami ([3]; C 200 mg/l): 5 | No umami ([3]; C 200 mg/l): 0 | Umami ([3]; C 200 mg/l): 1 | Intense umami ([3]; C 500 mg/l): 3 | No umami ([3]; C 500 mg/l): 0 | Umami ([3]; C 500 mg/l): 3 | Intense umami ([4]; C 200 mg/l): 0 | No umami ([4]; C 200 mg/l): 4 | Umami ([4]; C 200 mg/l): 3 | Intense umami ([4]; C 500 mg/l): 0 | No umami ([4]; C 500 mg/l): 3 | Umami ([4]; C 500 mg/l): 4 | tomato soups with and without the compound, perceived difference (sensory panel; 500 mg/L (500 ppm)): perceived as significantly different | savory, umami taste of tomato soups (sensory panel; 500 ppm): increased significantly

O=C1C=C[C@H](O[C@H]2O[C@H](CO)[C@@H](O)[C@H](O)[C@H]2O)N1 [alpha-S, (5S)-(α-D-glucopyranosyloxy)-1,5-dihydro-2H-pyrrol-2-one]
Intense umami ([1]; C 100 mg/l): 0 | No umami ([1]; C 100 mg/l): 5 | Umami ([1]; C 100 mg/l): 0 | Intense umami ([1]; C 250 mg/l): 0 | No umami ([1]; C 250 mg/l): 4 | Umami ([1]; C 250 mg/l): 1 | Intense umami ([1]; C 500 mg/l): 0 | No umami ([1]; C 500 mg/l): 5 | Umami ([1]; C 500 mg/l): 0

N[C@@H](CCC(=O)O)C(=O)[O-].[Na+] [Monosodium glutamat]
threshold (umami) [5]: 1500 µmol/L

O=C1C=C[C@H](O[C@@H]2O[C@H](CO)[C@@H](O)[C@H](O)[C@H]2O)N1 [beta-S, (5S)-(β-D-glucopyranosyloxy)-1,5-dihydro-2H-pyrrol-2-one]
Intense umami ([1]; C 100 mg/l): 0 | No umami ([1]; C 100 mg/l): 5 | Umami ([1]; C 100 mg/l): 0 | Intense umami ([1]; C 200 mg/l): 0 | No umami ([1]; C 200 mg/l): 5 | Umami ([1]; C 200 mg/l): 0 | Intense umami ([1]; C 500 mg/l): 0 | No umami ([1]; C 500 mg/l): 4 | Umami ([1]; C 500 mg/l): 1

O=C1C=C[C@@H](O[C@H]2O[C@H](CO)[C@@H](O)[C@H](O)[C@H]2O)N1 [alpha-R, (5R)-(α-D-glucopyranosyloxy)-1,5-dihydro-2H-pyrrol-2-one]
Intense umami ([1]; C 200 mg/l): 0 | No umami ([1]; C 200 mg/l): 5 | Umami ([1]; C 200 mg/l): 0 | Intense umami ([1]; C 400 mg/l): 0 | No umami ([1]; C 400 mg/l): 5 | Umami ([1]; C 400 mg/l): 0 | Intense umami ([1]; C 800 mg/l): 0 | No umami ([1]; C 800 mg/l): 5 | Umami ([1]; C 800 mg/l): 0
